IC50 data for 13 compounds are collected here from patent publication EP4768484A1, “HETEROCYCLIC FUSED RING COMPOUND, AND COMPOSITION AND USE THEREOF” (Shenzhen TargetRx, Inc., priority 2023, dated 2025).

SMILES strings stand for the structures.

Common to all, as to format: cell-based
Assay [1] has as its system Ba/F3 parental cells. Briefly: Cell growth inhibitory activity assay (CellTiter-Glo), Ba/F3 parental cells. The note with it: Mus musculus, BaF3, 72 h, CTG cell viability, read-out: IC50 Ba/F3 BCR-ABL1 Parental. The essentials:
(§1)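 Ba/F3 lines stably transduced by lentivirus with WT or mutant BCR-ABL1, alongside untransduced parental Ba/F3, were seeded and incubated overnight at 37 °C, 5% CO2, then exposed to serially diluted compound for 72 h. Viability was read as ATP by CellTiter-Glo luminescence against a day-of-dosing T0 plate; IC50 from four-parameter nonlinear fit.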
(In ATP-based viability assays light output follows the ATP content of the culture.)

Assay [2] relates to K562 cells. Description: Cell growth inhibitory activity assay (CellTiter-Glo), K562 cells. The note with it: Homo sapiens, 72 h, CTG cell viability. In outline:
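Growth inhibition of human K562 cells, sourced from Nanjing Kebai (CBP60529), was assessed with Promega's CellTiter-Glo kit, which measures viability through ATP quantification. Log-phase cells went into the inner wells of 96-well plates, with PBS in edge wells, incubated overnight at 37 °C and 5% CO2, then exposed to serially diluted compound for 72 h.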

The target of assay [3] is T1, Ba/F3 BCR-ABL1 T315I (Homo sapiens, UniProt P00519+P11274, T315I).
T1 construct: BCR (N-terminal fusion partner of the oncoprotein); expressed in transfected cells; host or cells: Ba/F3 (lentiviral transduction, monoclonal line)
Description: Cell growth inhibitory activity assay (CellTiter-Glo), Ba/F3 BCR-ABL1 T315I cells. The note with it: 72 h, CTG cell viability. In outline: as §1

Assay [4] deals with T2, Ba/F3 BCR-ABL1 WT (Homo sapiens, UniProt P00519+P11274).
T2 construct: BCR (N-terminal fusion partner of the oncoprotein); expressed in transfected cells; host or cells: Ba/F3 (lentiviral transduction, monoclonal line)
Description: Cell growth inhibitory activity assay (CellTiter-Glo), Ba/F3 BCR-ABL1 WT cells. Conditions: 72 h, CTG cell viability. In outline: as §1

Assay [5] concerns the target T3, Ba/F3 BCR-ABL1 T315M (Homo sapiens, UniProt P00519+P11274, T315M).
T3 construct: BCR (N-terminal fusion partner of the oncoprotein); expressed in transfected cells; host or cells: Ba/F3 (lentiviral transduction, monoclonal line)
Briefly: Cell growth inhibitory activity assay (CellTiter-Glo), Ba/F3 BCR-ABL1 T315M cells. Conditions: 72 h, CTG cell viability. The protocol: In this assay, the Celltiter-Glo (CTG) kit provided by Promega was used, and it is a homogeneous cell viability assay method. The cell viability of cultured cells was measured by quantifying ATP. K562 cells were purchased from Nanjing Kebai, product number CBP60529; Ba/F3 parental cells were purchased from RIKEN BRC, product number RCB0805; other cells containing BCR-ABL1 WT, BCR-ABL1 T315I, BCR-ABL1 T315M, BCR-ABL1 Y253H/E255K, BCR-ABL1 E255V/T3151, BCR-ABL1 A424T, BCR-ABL1 A337V, BCR-ABL1 P465S, BCR-ABL1 V468F, and BCR-ABL1 I502L were all monoclonal engineered cell lines obtained by transducting Ba/F3 parental cells with the lentivirus plasmids containing WT or corresponding mutated BCR-ABL1.
The steps of cell viability assay are as follows: • a) Cells in logarithmic growth phase were collected. Cell suspension was prepared and the cells were counted. Concentration of the cells was calculated. • b) The cell suspension was diluted to the required concentration and then added to the middle wells of a 96-well plate, and PBS was added to the edge wells. The wells with no cells and only culture medium were used as blank controls. • c) In addition to the cell plate used for compound analysis, another 96-well plate was prepared as a T0 plate, and 3-6 blank wells and 3-6 cell wells were added. The next day, CTG was used to test the cell viability as the T0 viability value of the cells. • d) The cell plate was incubated at 37 °C in a 5% CO2 incubator overnight. • e) The next day, each concentration of a compound subjected to a gradient dilution was added, and the cell plate was incubated at 37 °C in a 5% CO2 incubator for 72 h. The wells with no compound and only 0.5% DMSO were used as positive controls for cell growth. • f) CTG reagent (CellTiter-Glo kit) was added according to the manufacturer's instructions to test the cell viability value. • g) The plate was read using Biotek cytation3.0 microplate reader and the data were exported. • h) IC50 was calculated using GraphPad Prism 7.0 software.
The IC50 (half-maximal inhibitory concentration) of the compound was obtained using the following nonlinear fitting formula: Y = Bottom + (Top−Bottom)/(1+10^(∧)((LogIC50−X)*HillSlope)) [formula] • X: Log value of the compound concentration • Y: Inhibition rate (% inhibition) • Top: Maximum response • Bottom: Baseline response • HillSlope: Slope of the curve
The formula for calculating cell inhibition rate (inhibition rate %) was: [formula]

Turning to `CC(=O)N[C@@H]1CCC2c3cc(C(=O)Nc4ccc(OC(F)(F)Cl)cc4)cc(-c4cnccn4)c3N(C(C)C)C21` (stereo partly drawn) [T-12-B, (3R)-3-acetamido-N-(4-(chlorodifluoromethoxy)phenyl)-4-isopropyl-5-(pyrazin-2-yl)-1,2,3,3a,4,8b-hexahvdrocyclopentalblindole-7-carboxamide], the IC50 is above 1 µM in assay [1]; at most 0.005 µM in assay [2]; 0.005 to 0.05 µM in assay [3]; at most 0.005 µM in assay [4]; 0.05 to 1 µM in assay [5].
For the compound `C[C@@H]1CC[S+]([O-])c2nc3cc(C(=O)Nc4ccc(OC(F)(F)Cl)cc4)cc(-c4cnc5c(c4)C(=O)N(C)C5)c3n21` (stereo partly drawn) [T-27, (4R)-N-(4-(chlorodifluoromethoxy)phenyl)-4-methyl-6-(6-methyl-5-oxo-6,7-dihydro-5H-pyrrolo[3,4-b]pyridin-3-yl)-3,4-dihydro-2H-benzo[4,5]imidazo[2,1-b][1,3]thiazine-8-carboxamide 1-oxide], the IC50 in assay [1] was above 1 µM; in assay [2] it was at most 0.005 µM; in assay [3], 0.05 to 1 µM; in assay [4], 0.005 to 0.05 µM; in assay [5], above 1 µM.
As for `C[C@@H]1CCS(=O)(=O)c2nc3cc(C(=O)Nc4ccc(OC(F)(F)Cl)cc4)cc(-c4cnc5c(c4)C(=O)N(C)C5)c3n21` [T-28, (R)-N-(4-(chlorodifluoromethoxy)phenyl)-4-methyl-6-(6-methyl-5-oxo-6,7-dihydro-5H-pyrrolo[3,4-b]pyridin-3-yl)-3,4-dihydro-2H-benzo[4,5]imidazo[2,1-b][1,3]thiazine-8-carboxamide 1,1-dioxide], the IC50 in assay [1] was above 1 µM; in assay [2] it was at most 0.005 µM; in assay [3], 0.005 to 0.05 µM; in assay [4], 0.005 to 0.05 µM; in assay [5], 0.05 to 1 µM.
`C[C@@H]1COCc2nc3cc(C(=O)Nc4ccc(OC(F)(F)Cl)cc4)cc(-c4cnc5c(c4)C(=O)NC5)c3n21` [T-30, (R)-N-(4-(chlorodifluoromethoxy)phenyl)-4-methyl-6-(5-oxo-6,7-dihydro-5H-pyrrolo[3,4-b]pyridin-3-yl)-3,4-dihydro-1H-benzo[4,5]imidazo[2,1-c][1,4]oxazine-8-carboxamide]: the IC50 in assay [1] was above 1 µM; in assay [2], at most 0.005 µM; in assay [3], 0.05 to 1 µM; in assay [4] it was at most 0.005 µM; in assay [5] it was 0.005 to 0.05 µM.
Regarding `C[C@@H]1CCC(O)c2nc3cc(C(=O)Nc4ccc(OC(F)(F)Cl)cc4)cc(-c4cnc5c(c4)C(=O)N(C4CC4)C5)c3n21` (stereo partly drawn) [T-32, (1R)-N-(4-(chlorodifluoromethoxy)phenyl)-9-(6-cyclopropyl-5-oxo-6,7-dihydro-5H-pyrrolo[3,4-b]pyridin-3-yl)-4-hydroxy-1-methyl-1,2,3,4-tetrahydrobenzo[4,5]imidazo[1,2-a]pyridine-7-carboxamide], the IC50 is above 1 µM in assay [1]; at most 0.005 µM in assay [2]; 0.05 to 1 µM in assay [3]; at most 0.005 µM in assay [4]; 0.05 to 1 µM in assay [5].
In the case of `C[C@@H]1CCC(O)c2nc3cc(C(=O)Nc4ccc(OC(F)(F)Cl)cc4)cc(-c4cnc5c(c4)C(=O)NC5)c3n21` (stereo partly drawn) [T-33, (1R)-N-(4-(chlorodifluoromethoxy)phenyl)-4-hydroxy-1-methyl-9-(5-oxo-6,7-dihydro-5H-pyrrolo[3,4-b]pyridin-3-yl)-1,2,3,4-tetrahydrobenzo[4,5]imidazo[1,2-a]pyridine-7-carboxamide], the IC50 was above 1 µM in assay [1]; at most 0.005 µM in assay [2]; 0.05 to 1 µM in assay [3]; 0.005 to 0.05 µM in assay [4]; 0.05 to 1 µM in assay [5].
Turning to `C[C@@H]1CCC(F)c2nc3cc(C(=O)Nc4ccc(OC(F)(F)Cl)cc4)cc(-c4cnc5c(c4)C(=O)N(C4CC4)C5)c3n21` (some centres unmarked) [T-35], the IC50 in assay [1] was above 1 µM; in assay [2] it was at most 0.005 µM; in assay [3], 0.005 to 0.05 µM; in assay [4] it was at most 0.005 µM; in assay [5], 0.005 to 0.05 µM.
In the case of `C[C@@H]1CN(C)CCc2nc3cc(C(=O)Nc4ccc(OC(F)(F)Cl)cc4)cc(-c4cnc5c(c4)C(=O)N(C4CC4)C5)c3n21` [T-37, (R)-N-(4-(chlorodifluoromethoxy)phenyl)-10-(6-cyclopropyl-5-oxo-6,7-dihydro-5H-pyrrolo[3,4-b]pyridin-3-yl)-1,3-dimethyl-2,3,4,5-tetrahydro-1H-benzo[4,5]imidazo[1,2-d][1,4]diazepine-8-carboxamide], the IC50 in assay [1] was above 1 µM; in assay [2], 0.05 to 1 µM; in assay [3] it was above 1 µM; in assay [4], above 1 µM; in assay [5] it was above 1 µM.
Take `C[C@@H]1CCOCc2nc3cc(C(=O)Nc4ccc(OC(F)(F)Cl)cc4)cc(-c4cnc5c(c4)C(=O)N(C)C5)c3n21` [T-39, (R)-N-(4-(chlorodifluoromethoxy)phenyl)-5-methyl-7-(6-methyl-5-oxo-6,7-dihydro-5H-pyrrolo[3,4-b]pyridin-3-yl)-4,5-dihydro-1H,3H-benzo[4,5]imidazo[2,1-c][1,4]oxazepine-9-carboxamide]: the IC50 is above 1 µM in assay [1]; at most 0.005 µM in assay [2]; 0.05 to 1 µM in assay [3]; at most 0.005 µM in assay [4]; above 1 µM in assay [5].
`CC(=O)n1cc2c(n1)-c1cc(-c3cc(C(=O)Nc4ccc(OC(F)(F)Cl)cc4)cc4nc5n(c34)[C@H](C)COC5)cnc1C2` [T-43, (R)-6-(2-acetyl-2,4-dihydropyrazolo[3',4':3,4]cyclopenta[1,2-b]pyridin-7-yl)-N-(4-(chlorodifluoromethoxy)phenyl)-4-methyl-3,4-dihydro-1H-benzo[4,5]imidazo[2,1-c][1,4]oxazine-8-carboxamide]: the IC50 was above 1 µM in assay [1]; at most 0.005 µM in assay [2]; at most 0.005 µM in assay [3]; at most 0.005 µM in assay [4]; 0.05 to 1 µM in assay [5].
Turning to `Cc1ccnc(-n2cc3c(n2)-c2cc(-c4cc(C(=O)Nc5ccc(OC(F)(F)Cl)cc5)cc5nc6n(c45)[C@H](C)COC6)cnc2C3)n1` [T-73, (R)-N-(4-(chlorodifluoromethoxy)phenyl)-4-methyl-6-(2-(4-methylpyrimidin-2-yl)-2,4-dihydropyrazolo[3',4':3,4]cyclopenta[1,2-b]pyridin-7-yl)-3,4-dihydro-1H-benzo[4,5]imidazo[2,1-c][1,4]oxazine-8-carboxamide], the IC50 in assay [1] is above 1 µM; in assay [2] it was at most 0.005 µM; in assay [3], at most 0.005 µM; in assay [4], at most 0.005 µM; in assay [5] it was at most 0.005 µM.
For `C[C@@H]1CC[S+]([O-])c2nc3cc(C(=O)Nc4ccc(OC(F)(F)Cl)cc4)cc(-c4cnccn4)c3n21` (stereo partly drawn) [T-117, (4R)-N-(4-(chlorodifluoromethoxy)phenyl)-4-methyl-6-(pyrazin-2-yl)-3,4-dihydro-2H-benzo[4,5]imidazo[2,1-b][1,3]thiazine-8-carboxamide 1-oxide], the IC50 was above 1 µM in assay [1]; at most 0.005 µM in assay [2]; 0.005 to 0.05 µM in assay [3]; at most 0.005 µM in assay [4]; above 1 µM in assay [5].
On to `C[C@@H]1CCS(=O)(=O)c2nc3cc(C(=O)Nc4ccc(OC(F)(F)Cl)cc4)cc(-c4cnccn4)c3n21` [T-118, (R)-N-(4-(chlorodifluoromethoxy)phenyl)-4-methyl-6-(pyrazin-2-yl)-3,4-dihydro-2H-benzo[4,5]imidazo[2,1-b][1,3]thiazine-8-carboxamide 1,1-dioxide], for which the IC50 was above 1 µM in assay [1]; at most 0.005 µM in assay [2]; 0.005 to 0.05 µM in assay [3]; at most 0.005 µM in assay [4]; 0.05 to 1 µM in assay [5].
